Laboratory results from article PMC10272112 (Nature Communications, 2023).

Experiments:
Assay in all cases: Chemoproteomic competition pulldown assay (co-competed CoREST partner)
Format in all cases: binding
HMG20A = test system: HMG20A
Experimental: (§1) To identify proteins directly bound by lipoic acid, we employed a chemoproteomic competition assay. Briefly, (R/S)-LA was immobilized on sepharose beads via an amidation reaction to form an affinity matrix (abbreviated as iL; Fig. 1a). This affinity matrix can be incubated with cell lysate to pull down potential LA or LM target proteins and identify these targets via bottom-up proteomics. In a competition assay, free LA or LM were incubated with lysate at different concentrations before pulling down and quantifying target proteins. […] (Fig. 1b, see “Methods” for details). […] The lysate buffer used in this assay contains 1 mM DTT to mimic the intracellular reductive milieu and to reduce lipoic acid and LM. […] Additional competition assays performed in lung adenocarcinoma cell A549 lysate also identified HDAC1, HDAC2, and HDAC6 as targets (Supplementary Fig. 1b). Amongst the three cell lines tested, HDACs were the only confidently identified targets across the 1500–3000 proteins quantified in these assays. […] We validated the results by analogous pulldown competition assays using two other affinity matrices prepared via the immobilization of either the HDAC inhibitor Quisinostat (iQ) and an analog of the class IIa HDAC inhibitor Bürli’s 31[14] (iC)[12]. We have previously shown that these affinity matrices specifically bind to the active sites of HDACs and have used them for HDACi selectivity profiling. Indeed, binding of (R/S)-LA and (R/S)-LM to HDAC1, HDAC2, HDAC3, HDAC6, and, to a lesser extent, HDAC8 was confirmed in these assays (Supplementary Fig. 1c, d). No binding to class IIa HDACs or the recently discovered common HDAC inhibitor off-target MBLAC2 was observed (Supplementary Fig. 1e)[12]. […] This observation might reflect electrostatic repulsion between the HDAC10 active site gate-keeper glutamic acid residues[15],[16] and the terminal carboxylic acid of LA.
(§2) To assess the degree of protein depletion from lysates by the affinity matrix, a second pulldown (PDPD) with fresh beads was performed using the unbound protein fraction from the vehicle control flow through. The beads were washed (1 × 1 mL of lysis buffer without inhibitors and only 0.4% Igepal, 2 × 2 mL of lysis buffer without inhibitors and only 0.2% Igepal), and captured proteins were denatured with 8 M urea buffer, alkylated with 55 mM chloroacetamide and digested with Trypsin according to standard procedures. The resulting peptides were desalted on a C18 filter plate (Sep-Pak® tC18 µElution Plate, Waters), vacuum dried, and stored at −20 °C until LC–MSMS measurement.
(§3) For the competition assays, relative binding was calculated based on the protein intensity ratio to the DMSO control for every single inhibitor concentration. EC50 values were derived from a four-parameter log-logistic regression with variable slope (constrain: bottom > 0). The obtained EC50 values were multiplied with a protein-dependent correction factor (cf), resulting in the apparent Kd value (Kd^app). The correction factor is determined by calculating the ratio of the protein intensity of two consecutive pulldowns of the vehicle control sample[13]. Targets of the inhibitors were annotated manually according to published procedures[12],[46],[47]. […] Additionally, the number of unique peptides and MSMS counts per condition were taken into account. Positive target binding across several independent experiments performed with different cell lysates further substantiated our confidence for a true positive drug-target binding event.

RCOR1 = details: iL, MV4-11 lysate
Experimental: as §1, §2, §3

GSE1 = test system: GSE1
Experimental: as §1, §2, §3

KDM1A = test system: KDM1A
Experimental: as §1, §2, §3

RCOR3 = test system: RCOR3
Experimental: as §1, §2, §3

[1] = iL, MV4-11 lysate, log10 M -3.52288
[2] = iL, MV4-11 lysate, log10 M -4.52288
[3] = iL, MV4-11 lysate, log10 M -5.52288
[4] = iL, MV4-11 lysate, log10 M -6.52288
[5] = iQ, SW620 lysate, log10 M -3.52288
[6] = iQ, SW620 lysate, log10 M -4.52288
[7] = iQ, SW620 lysate, log10 M -5.52288
[8] = iQ, SW620 lysate, log10 M -6.52288

relative binding vs DMSO (HMG20A; [1]): 0.1398 | relative binding vs DMSO (HMG20A; iL, MV4-11 lysate, log10 M -4): 0.1277 | relative binding vs DMSO (HMG20A; [2]): 0.1925 | relative binding vs DMSO (HMG20A; iL, MV4-11 lysate, log10 M -5): 0.5136 | relative binding vs DMSO (HMG20A; [3]): 0.6563 | relative binding vs DMSO (HMG20A; iL, MV4-11 lysate, log10 M -6): 0.8243 | relative binding vs DMSO (HMG20A; [4]): 0.9555 | relative binding vs DMSO (HMG20A; iL, MV4-11 lysate, log10 M -7): 1.012 | relative binding vs DMSO (HMG20A; [5]): 0.03313 | relative binding vs DMSO (HMG20A; iQ, SW620 lysate, log10 M -4): 0.1846 | relative binding vs DMSO (HMG20A; [6]): 0.4151 | relative binding vs DMSO (HMG20A; iQ, SW620 lysate, log10 M -5): 0.6118 | relative binding vs DMSO (HMG20A; [7]): 0.969 | relative binding vs DMSO (HMG20A; iQ, SW620 lysate, log10 M -6): 0.8792 | relative binding vs DMSO (HMG20A; [8]): 0.8032 | relative binding vs DMSO (HMG20A; iQ, SW620 lysate, log10 M -7): 1.062 | relative binding vs DMSO (RCOR1; log10 M -3.52288): 0.05785 | relative binding vs DMSO (RCOR1; log10 M -4): 0.0548 | relative binding vs DMSO (RCOR1; log10 M -4.52288): 0.1462 | relative binding vs DMSO (RCOR1; log10 M -5): 0.4201 | relative binding vs DMSO (RCOR1; log10 M -5.52288): 0.5816 | relative binding vs DMSO (RCOR1; log10 M -6): 0.5592 | relative binding vs DMSO (RCOR1; log10 M -6.52288): 0.7783 | relative binding vs DMSO (RCOR1; log10 M -7): 0.8248 | relative binding vs DMSO (GSE1; [1]): 0.03208 | relative binding vs DMSO (GSE1; iL, MV4-11 lysate, log10 M -4): 0.05802 | relative binding vs DMSO (GSE1; [2]): 0.1417 | relative binding vs DMSO (GSE1; iL, MV4-11 lysate, log10 M -5): 0.4933 | relative binding vs DMSO (GSE1; [3]): 0.6793 | relative binding vs DMSO (GSE1; iL, MV4-11 lysate, log10 M -6): 0.8351 | relative binding vs DMSO (GSE1; [4]): 0.9265 | relative binding vs DMSO (GSE1; iL, MV4-11 lysate, log10 M -7): 0.8883 | relative binding vs DMSO (GSE1; [5]): 0.1386 | relative binding vs DMSO (GSE1; iQ, SW620 lysate, log10 M -4): 0.1278 | relative binding vs DMSO (GSE1; [6]): 0.3991 | relative binding vs DMSO (GSE1; iQ, SW620 lysate, log10 M -5): 0.559 | relative binding vs DMSO (GSE1; [7]): 0.8469 | relative binding vs DMSO (GSE1; iQ, SW620 lysate, log10 M -6): 1.003 | relative binding vs DMSO (GSE1; [8]): 0.8631 | relative binding vs DMSO (GSE1; iQ, SW620 lysate, log10 M -7): 0.9076 | relative binding vs DMSO (KDM1A; [1]): 0.06889 | relative binding vs DMSO (KDM1A; iL, MV4-11 lysate, log10 M -4): 0.07597 | relative binding vs DMSO (KDM1A; [2]): 0.1867 | relative binding vs DMSO (KDM1A; iL, MV4-11 lysate, log10 M -5): 0.4972 | relative binding vs DMSO (KDM1A; [3]): 0.6394 | relative binding vs DMSO (KDM1A; iL, MV4-11 lysate, log10 M -6): 0.7472 | relative binding vs DMSO (KDM1A; [4]): 0.8335 | relative binding vs DMSO (KDM1A; iL, MV4-11 lysate, log10 M -7): 0.9817 | relative binding vs DMSO (KDM1A; [5]): 0.09916 | relative binding vs DMSO (KDM1A; iQ, SW620 lysate, log10 M -4): 0.186 | relative binding vs DMSO (KDM1A; [6]): 0.3209 | relative binding vs DMSO (KDM1A; iQ, SW620 lysate, log10 M -5): 0.6955 | relative binding vs DMSO (KDM1A; [7]): 0.8479 | relative binding vs DMSO (KDM1A; iQ, SW620 lysate, log10 M -6): 0.9866 | relative binding vs DMSO (KDM1A; [8]): 0.7392 | relative binding vs DMSO (KDM1A; iQ, SW620 lysate, log10 M -7): 0.6643 | relative binding vs DMSO (RCOR3; [1]): 0.04482 | relative binding vs DMSO (RCOR3; iL, MV4-11 lysate, log10 M -4): 0.03145 | relative binding vs DMSO (RCOR3; [2]): 0.2203 | relative binding vs DMSO (RCOR3; iL, MV4-11 lysate, log10 M -5): 0.5854 | relative binding vs DMSO (RCOR3; [3]): 0.7487 | relative binding vs DMSO (RCOR3; iL, MV4-11 lysate, log10 M -6): 1.237 | relative binding vs DMSO (RCOR3; [4]): 1.016 | relative binding vs DMSO (RCOR3; iL, MV4-11 lysate, log10 M -7): 0.9839 | relative binding vs DMSO (RCOR3; [5]): 0.0548 | relative binding vs DMSO (RCOR3; iQ, SW620 lysate, log10 M -4): 0.3164 | relative binding vs DMSO (RCOR3; [6]): 0.4259 | relative binding vs DMSO (RCOR3; iQ, SW620 lysate, log10 M -5): 0.6647 | relative binding vs DMSO (RCOR3; [7]): 0.7959 | relative binding vs DMSO (RCOR3; iQ, SW620 lysate, log10 M -6): 1.1558 | relative binding vs DMSO (RCOR3; [8]): 0.7323 | relative binding vs DMSO (RCOR3; iQ, SW620 lysate, log10 M -7): 0.9341
Structure (SMILES): NC(=O)CCCCC1CCSS1 (racemic) [(R/S)-LM, (R/S)-lipoamide]
